According to patent publication US12390441B2, “Immunomodulating o-het/aryl azalides” (Zoetis Services LLC, priority 2020, dated 2025):
Entries after “also recorded” stand apart in the source; their conditions may differ.

Key:
[1] = test system: Bovine primary cells (PBMCs, PMN/neutrophils) and tissue (trachea, lung) protein homogenates; experiment: Binding partner identification (NPOT, mass spectrometry); settings: as compared to gamithromycin
Procedure: To further characterize the direct activity of the compounds of the invention, experiments to identify the drug's direct binding host partners(s) were performed with the aim of identifying the potential biological targets. Bovine primary cells (peripheral blood mononuclear cells [PBMCs] and polymorphonuclear cells [PMN/neutrophils]) and tissue (trachea, lung) protein homogenates were mixed with M9 and the macrolide, gamithromicin as a comparator. Tissue interactions were allowed to form using a heterogeneous assembly method (nematic protein organization technique, NPOT; Inoviem Scientific); and traditional western blots to identify native-structure proteins bound to the compound. Mass spectrometry analysis identified eight proteins involved in the interaction with M9 as compared to gamithromycin. The antibacterial macrolide gamithromycin was used as a comparator to differentiate specific binding to M9. These proteins were considered to be either direct binding partners of the drug or closely involved in the drug:target interaction (Table 6).

LCN2 = target: T1, LCN2 (Bos taurus, UniProt A0AAA9TIZ6); experiment: Surface plasmon resonance (SPR), KD; type: binding; settings: biologically relevant pH
T1 sequence (A0AAA9TIZ6 1-200): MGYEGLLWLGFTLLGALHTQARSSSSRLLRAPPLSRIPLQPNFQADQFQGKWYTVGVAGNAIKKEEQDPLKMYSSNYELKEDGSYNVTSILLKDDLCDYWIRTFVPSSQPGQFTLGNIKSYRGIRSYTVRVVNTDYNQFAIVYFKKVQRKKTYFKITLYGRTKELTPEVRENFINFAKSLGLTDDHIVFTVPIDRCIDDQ
Description: (§1) In order to add further clarity to binding partner identification, surface plasma resonance (SPR) technology was used. […] These targets were unique to this drug as compared to gamithromycin, a macrolide antibiotic used in the treatment of BRD. Both targets fit the paradigm that the immunological mechanism of action is linked to the pathways that are both of key importance as being dysregulated in BRD and modulated by M9. LCN2 is expressed by neutrophils upon activation of toll-like receptors (TLRs) and is a component of the innate inflammatory response. […] Very little information exists to date on SLAMF9. It is a member of a family of signal adaptor proteins that is thought to lack signal transduction capabilities.
(§2) KD is the equilibrium dissociation constant that was used to present the drug/target affinity. The identified targets associated with drug were measured by surface plasmon resonance (SPR) to define the KD.

SLAMF9 = SLAMF9 (Bos taurus, UniProt E1BNF9); experiment: Surface plasmon resonance (SPR), KD; type: binding; settings: biologically relevant pH
Sequence of SLAMF9 (E1BNF9 1-289): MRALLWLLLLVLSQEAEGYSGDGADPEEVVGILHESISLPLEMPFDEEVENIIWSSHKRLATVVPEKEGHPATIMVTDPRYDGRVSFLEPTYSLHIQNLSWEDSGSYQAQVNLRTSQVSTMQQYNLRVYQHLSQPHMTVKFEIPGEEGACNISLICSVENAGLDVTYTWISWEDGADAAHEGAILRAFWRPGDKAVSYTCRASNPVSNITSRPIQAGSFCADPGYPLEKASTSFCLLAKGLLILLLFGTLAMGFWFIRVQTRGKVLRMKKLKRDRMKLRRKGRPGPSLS
Description: as §1, §2

CD163 = CD163 expression by flow cytometry, blood of treated cattle; settings: monocytes/macrophages

CCCNC[C@]1(O)[C@H](C)O[C@@H](O[C@H]2[C@H](C)[C@@H](O[C@@H]3O[C@H](C)C[C@H](NC)[C@H]3O)[C@](C)(O)C[C@@H](C)CN[C@H](C)[C@@H](O)[C@](C)(O)[C@@H](CC)OC(=O)[C@@H]2C)C[C@@]1(C)OC [Example M9, (2R,3S,4R,5R,8R,10R,11R,12S,13S,14R)-2-ethyl-3,4,10-trihydroxy-13-(((2R,4R,5S,6S)-5-hydroxy-4-methoxy-4,6-dimethyl-5-((propylamino)methyl)-tetrahydro-2H-pyran-2-yl)oxy)-11-(((2S,3R,4S,6R)-3-hydroxy-6-methyl-4-(methylamino)tetrahydro-2H-pyran-2-yl)oxy)-3,5,8,10,12,14-hexamethyl-1-oxa-6-azacyclopentadecan-15-one]
proteins involved in the interaction [1]: eight | drug/target binding, LCN2 (LCN2): direct binding targets | drug/target binding, SLAMF9 (SLAMF9): direct binding targets | CD163 expression (CD163): suppressed; also recorded: mitigates the pathologic increase
